Test results reported in US6239171A, “Tocotrienols and tocotrienol-like compounds and methods for their use” (Lipogenics, Inc., priority 1998, dated 2001).

Columns and labels:
[1] = system: hypercholesterolemic swine; experiment: Serum cholesterol, apolipoproteins, triglycerides, glucose, insulin and glucagon in hypercholesterolemic swine; assay type: in vivo
Experimental: All assays conducted on chicken or swine serum were done following the protocols described in A. A. Qureshi et al., "Lowering Of Serum Cholesterol In Hypercholesterolemic Humans By Tocotrienols" (Palmvitee), Am. […] Plasma insulin, glucagon and TNF levels were measured using radioinnumoassay kits from Ventrex Laboratories, Inc. (Portland, Me.), ICN Biomedicals, Inc. (Costa Mesa, Calif.) and Genzyme Corp. (Cambridge, Mass.), respectively.
We next measured the effects of various tocotrienols from rice bran on HMG-CoA reductase and cholesterol 7α-hydroxylase in hypercholesterolemic swine. Since pigs are very similar to humans in their cholesterol metabolism, they provide a useful model from which to study hypercholesterolemia and related diseases. […] As a result, the pigs develop complicated atherosclerotic plaques that closely resemble advanced atherosclerotic lesions found in humans.
(§1) Each group of three 5-month old swine was administered either a control diet or a control diet supplemented with 50 ppm of TRF or 50 ppm of an individual tocotrienol. […] After a 12 hour fast, serum and plasma samples were taken a 0 hrs, 21 days and 42 days from the start of the feeding period. After taking serum and plasma samples from the pigs at the end of the 42 day period, all of the swine were fasted for a total of 40 hours, followed by a 48 hour refeeding period. One swine from each group was sacrificed at that time and the liver, intestine, lung, heart, loin muscle, adipose tissue and ham muscle were removed.
The experimental conditions were the same, except that the two remaining swine in each group were transferred to the unsupplemented control diet following the 42 day feeding period. After an additional 70 days, serum and plasma samples were collected from these swine after a 12 hour fast for testing.

[2] = system: hypercholesterolemic swine; experiment: Total cholesterol, triglyceride and glucose concentrations in tissues of hypercholesterolemic swine; assay type: in vivo
Experimental: as §1
We next determined the effect of tocotrienols on the total cholesterol, triglyceride and glucose concentrations in various tissues of hypercholesterolemic swine.

[3] = 70 days on control diet after 42 days at 50 ppm

In the case of CC(C)=CCC/C(C)=C/CC/C(C)=C/CCC1CCc2cc(O)ccc2O1 (stereo not drawn) [P25, 3,4-dihydro-2-(4,8,12-trimethyltrideca-3'(E),7'(E),11'-trienyl)-2H-1-benzopyran-6-ol], the “HDL-CHOLESTEROL CONCENTRATION IN SERUM” value [1, 3] is reported as 32.65 mg/100 ml, the “HDL-CHOLESTEROL, Percentage of Control Activity” value [1, 3] is reported as 114.29% and the “HDL-CHOLESTEROL, percentage of baseline value” [1, 3] is reported as 149.36%. For the same molecule, the “HDL:LDL CHOLESTEROL, Percentage of Control Activity” value [1, 3] was 82.06%, the “LDL-CHOLESTEROL CONCENTRATION IN SERUM” value [1, 3] was 233.75 mg/100 ml and the “LDL-CHOLESTEROL, Percentage of Control Activity” value [1, 3] was 90.17%. For the same molecule, the “LDL-CHOLESTEROL, percentage of baseline value” [1, 3] was 128.17%, the “TOTAL CHOLESTEROL CONCENTRATION IN SERUM” value [1, 3] was 268.90 mg/100 ml and the “TOTAL CHOLESTEROL, Percentage of Control Activity” value [1, 3] was 75.60%. The “TOTAL CHOLESTEROL, percentage of baseline value” [1, 3] was 124.45%, the “Apo A1, percentage of control” value ([1]; control diet + 50 ppm, 6 weeks) was 104.05% and the “Apo A1 concentration in serum” value ([1]; control diet + 50 ppm, 6 weeks) was 26.73 ± 1.22 mg/100 ml. For the same molecule, the “Apo B concentration in serum” value ([1]; control diet + 50 ppm, 6 weeks) was 106.63 ± 1.72 mg/100 ml, the “Apo B, percentage of control” value ([1]; control diet + 50 ppm, 6 weeks) was 72.16% and the “Triglycerides concentration in serum” value ([1]; control diet + 50 ppm, 6 weeks) was 62.00 ± 1.19 mg/100 ml. The “Triglycerides, percentage of control” value ([1]; control diet + 50 ppm, 6 weeks) was 80.98%, the “HDL-CHOLESTEROL CONCENTRATION IN SERUM” value ([1]; control diet + 50 ppm, 21 days) was 25.68 mg/100 ml and the “HDL-CHOLESTEROL, percentage of baseline value” ([1]; control diet + 50 ppm, 21 days) was 117.47%. For the same molecule, the “HDL:LDL CHOLESTEROL, percentage of baseline value” ([1]; control diet + 50 ppm, 21 days) was 89.20%, the “LDL-CHOLESTEROL CONCENTRATION IN SERUM” value ([1]; control diet + 50 ppm, 21 days) was 191.05 mg/100 ml and the “LDL-CHOLESTEROL, percentage of baseline value” ([1]; control diet + 50 ppm, 21 days) was 104.76%. For the same molecule, the “TOTAL CHOLESTEROL CONCENTRATION IN SERUM” value ([1]; control diet + 50 ppm, 21 days) was 229.90 mg/100 ml, the “TOTAL CHOLESTEROL, percentage of baseline value” ([1]; control diet + 50 ppm, 21 days) was 106.33% and the Glucagon ([1]; control diet + 50 ppm, 42 days) was 274.41 pg/mL. The “Glucagon, percentage of control” value ([1]; control diet + 50 ppm, 42 days) was 83.05%, the Glucose ([1]; control diet + 50 ppm, 42 days) was 71.89 mg/100 ml and the “Glucose, percentage of control” value ([1]; control diet + 50 ppm, 42 days) was 74.89%. The “HDL-CHOLESTEROL CONCENTRATION IN SERUM” value ([1]; control diet + 50 ppm, 42 days) was 31.81 mg/100 ml, the “HDL-CHOLESTEROL, Percentage of Control Activity” value ([1]; control diet + 50 ppm, 42 days) was 123.75% and the “HDL-CHOLESTEROL, percentage of baseline value” ([1]; control diet + 50 ppm, 42 days) was 145.52%. The “HDL:LDL CHOLESTEROL, Percentage of Control Activity” value ([1]; control diet + 50 ppm, 42 days) was 55.59%, the “HDL:LDL CHOLESTEROL, percentage of baseline value” ([1]; control diet + 50 ppm, 42 days) was 74.58% and the Insulin ([1]; control diet + 50 ppm, 42 days) was 20.9 µU/mL. The “Insulin, percentage of control” value ([1]; control diet + 50 ppm, 42 days) was 101.90%, the “LDL-CHOLESTEROL CONCENTRATION IN SERUM” value ([1]; control diet + 50 ppm, 42 days) was 198.01 mg/100 ml and the “LDL-CHOLESTEROL, Percentage of Control Activity” value ([1]; control diet + 50 ppm, 42 days) was 65.51%. For the same molecule, the “LDL-CHOLESTEROL, percentage of baseline value” ([1]; control diet + 50 ppm, 42 days) was 107.48%, the “TOTAL CHOLESTEROL CONCENTRATION IN SERUM” value ([1]; control diet + 50 ppm, 42 days) was 237.64 mg/100 ml and the “TOTAL CHOLESTEROL, Percentage of Control Activity” value ([1]; control diet + 50 ppm, 42 days) was 68.60%. The “TOTAL CHOLESTEROL, percentage of baseline value” ([1]; control diet + 50 ppm, 42 days) was 107.60%, the “reduction of total cholesterol concentration in the ham muscle” value ([2]; 50 ppm in diet) was 30% and the “reduction of total cholesterol concentration in the liver” value ([2]; 50 ppm in diet) was 37%. The “TOTAL CHOLESTEROL CONCENTRATION, Adipose Tissue” value ([2]; control diet + 50 ppm, 42 days) was 89.54 mg/100 gm, the “TOTAL CHOLESTEROL CONCENTRATION, Ham Muscle” value ([2]; control diet + 50 ppm, 42 days) was 69.17 mg/100 gm and the “TOTAL CHOLESTEROL CONCENTRATION, Heart” value ([2]; control diet + 50 ppm, 42 days) was 51.53 mg/100 gm. For the same molecule, the “TOTAL CHOLESTEROL CONCENTRATION, Intestine” value ([2]; control diet + 50 ppm, 42 days) was 176.67 mg/100 gm, the “TOTAL CHOLESTEROL CONCENTRATION, Liver” value ([2]; control diet + 50 ppm, 42 days) was 125.21 mg/100 gm and the “TOTAL CHOLESTEROL CONCENTRATION, Loin Muscle” value ([2]; control diet + 50 ppm, 42 days) was 99.04 mg/100 gm. The “TOTAL CHOLESTEROL CONCENTRATION, Lung” value ([2]; control diet + 50 ppm, 42 days) was 68.5 mg/100 gm, the “TOTAL CHOLESTEROL, Adipose Tissue, percentage of control” value ([2]; control diet + 50 ppm, 42 days) was 81.85% and the “TOTAL CHOLESTEROL, Ham Muscle, percentage of control” value ([2]; control diet + 50 ppm, 42 days) was 69.17%. The “TOTAL CHOLESTEROL, Heart, percentage of control” value ([2]; control diet + 50 ppm, 42 days) was 82.79%, the “TOTAL CHOLESTEROL, Intestine, percentage of control” value ([2]; control diet + 50 ppm, 42 days) was 81.98% and the “TOTAL CHOLESTEROL, Liver, percentage of control” value ([2]; control diet + 50 ppm, 42 days) was 62.11%. The “TOTAL CHOLESTEROL, Loin Muscle, percentage of control” value ([2]; control diet + 50 ppm, 42 days) was 81.85%, the “TOTAL CHOLESTEROL, Lung, percentage of control” value ([2]; control diet + 50 ppm, 42 days) was 66.98% and the “TOTAL GLUCOSE CONCENTRATION, Adipose Tissue” value ([2]; control diet + 50 ppm, 42 days) was 14.96 mg/100 gm. For the same molecule, the “TOTAL GLUCOSE CONCENTRATION, Ham Muscle” value ([2]; control diet + 50 ppm, 42 days) was 53.05 mg/100 gm, the “TOTAL GLUCOSE CONCENTRATION, Heart” value ([2]; control diet + 50 ppm, 42 days) was 45.49 mg/100 gm and the “TOTAL GLUCOSE CONCENTRATION, Intestine” value ([2]; control diet + 50 ppm, 42 days) was 56.06 mg/100 gm. For the same molecule, the “TOTAL GLUCOSE CONCENTRATION, Liver” value ([2]; control diet + 50 ppm, 42 days) was 362.99 mg/100 gm, the “TOTAL GLUCOSE CONCENTRATION, Loin Muscle” value ([2]; control diet + 50 ppm, 42 days) was 53.01 mg/100 gm and the “TOTAL GLUCOSE CONCENTRATION, Lung” value ([2]; control diet + 50 ppm, 42 days) was 60.96 mg/100 gm. For the same molecule, the “TOTAL GLUCOSE, Adipose Tissue, percentage of control” value ([2]; control diet + 50 ppm, 42 days) was 81.57%, the “TOTAL GLUCOSE, Ham Muscle, percentage of control” value ([2]; control diet + 50 ppm, 42 days) was 98.57% and the “TOTAL GLUCOSE, Heart, percentage of control” value ([2]; control diet + 50 ppm, 42 days) was 92.37%. For the same molecule, the “TOTAL GLUCOSE, Intestine, percentage of control” value ([2]; control diet + 50 ppm, 42 days) was 77.89%, the “TOTAL GLUCOSE, Liver, percentage of control” value ([2]; control diet + 50 ppm, 42 days) was 89.58% and the “TOTAL GLUCOSE, Loin Muscle, percentage of control” value ([2]; control diet + 50 ppm, 42 days) was 74.41%. For the same molecule, the “TOTAL GLUCOSE, Lung, percentage of control” value ([2]; control diet + 50 ppm, 42 days) was 91.08%, the “TOTAL TRIGLYCERIDES CONCENTRATION, Adipose Tissue” value ([2]; control diet + 50 ppm, 42 days) was 259.62 mg/100 gm and the “TOTAL TRIGLYCERIDES CONCENTRATION, Ham Muscle” value ([2]; control diet + 50 ppm, 42 days) was 182.98 mg/100 gm. For the same molecule, the “TOTAL TRIGLYCERIDES CONCENTRATION, Heart” value ([2]; control diet + 50 ppm, 42 days) was 140.51 mg/100 gm, the “TOTAL TRIGLYCERIDES CONCENTRATION, Intestine” value ([2]; control diet + 50 ppm, 42 days) was 345.37 mg/100 gm and the “TOTAL TRIGLYCERIDES CONCENTRATION, Liver” value ([2]; control diet + 50 ppm, 42 days) was 384.00 mg/100 gm. The “TOTAL TRIGLYCERIDES CONCENTRATION, Loin Muscle” value ([2]; control diet + 50 ppm, 42 days) was 189.18 mg/100 gm, the “TOTAL TRIGLYCERIDES CONCENTRATION, Lung” value ([2]; control diet + 50 ppm, 42 days) was 163.42 mg/100 gm and the “TOTAL TRIGLYCERIDES, Adipose Tissue, percentage of control activity” value ([2]; control diet + 50 ppm, 42 days) was 59.59%. For the same molecule, the “TOTAL TRIGLYCERIDES, Ham Muscle, percentage of control activity” value ([2]; control diet + 50 ppm, 42 days) was 98.44%, the “TOTAL TRIGLYCERIDES, Heart, percentage of control activity” value ([2]; control diet + 50 ppm, 42 days) was 97.43% and the “TOTAL TRIGLYCERIDES, Intestine, percentage of control activity” value ([2]; control diet + 50 ppm, 42 days) was 96.57%. For the same molecule, the “TOTAL TRIGLYCERIDES, Liver, percentage of control activity” value ([2]; control diet + 50 ppm, 42 days) was 89.44%, the “TOTAL TRIGLYCERIDES, Loin Muscle, percentage of control activity” value ([2]; control diet + 50 ppm, 42 days) was 86.12% and the “TOTAL TRIGLYCERIDES, Lung, percentage of control activity” value ([2]; control diet + 50 ppm, 42 days) was 95.03%.
